Data reported in patent US20230322771A1, “HETEROCYCLIC GLP-1 AGONISTS” (Gasherbrum Bio, Inc., priority 2020, published 2023).

Biological target: GLP-1 Receptor (Homo sapiens, UniProt P43220)
Experiment: GLP-1R agonist cAMP stimulation assay (HEK293/GLP1R/CRE-LUC cells, HTRF cAMP dynamic 2 kit)
Assay type: cell-based
Details: HEK293/CRE-Luc cell line (HDB) stably expressing GLP-1 Receptor; 30 min incubation at 37° C.; read-out: GLP1R cAMP Stimulation DR: EC50 (nM) [Species: Human, Assay Cell Line: HDB]
Description: Activation of GLP-1 receptor is known to stimulate cyclic AMP (cAMP) production in cells which indicates primary coupling to the Gαs subunit of the G protein heterotrimeric complex.
To optimize functional activity directed toward Gαs coupling, a HEK293/CRE-Luc cell line developed by HDB stably expressing the GLP-1 Receptor was used. 200× concentration of compound working solutions were prepared (Agilent Technologies Bravo) with ½ log serial dilution in 384-well Echo LDV plate (Labcyte, Cat #LP-0200). 50 nL/well 200× concentration of compound working solutions were moved to 384-well white low volume plate (Greiner, Cat #784075) using Labcyte ECHO550. 1×10^5 cells/mL HEK293/GLP1R/CRE-LUC(HD Biosciences) cell suspensions prepared with assay buffer[DPBS containing 0.5 mM IBMX(Sigma, Cat #15879) and 0.1% BSA(GENVIEW, Cat #FA016-100 g)], 10 uL cell suspensions were added to each well of previous generated assay plate which already contains 50 nl compound at 200× concentration using ThermoFisher Multidrop Combi(1000 cells/well). Seal the plate and incubate at 37° C. with 5% CO2 for 30 min.
After incubation the cAMP assay signal was generated using cAMP dynamic 2 Kit (Cisbio). 5 μL cAMP-d2 working solution was added to each well, followed with 5 μL Anti-cAMP antibody-cryptate working solution added to each well using ThermoFisher Multidrop Combi. Incubate at room temperature for 1 hour protected from light. Read the fluorescence at 665 and 615 nm with Reader PerkinElmer EnVision.
% Activity=100%×(mean RLU of test sample−mean RLU of vehicle control)/(mean RLU of MAX control−mean RLU of vehicle control))

Sequence of GLP-1 Receptor (P43220 24-463): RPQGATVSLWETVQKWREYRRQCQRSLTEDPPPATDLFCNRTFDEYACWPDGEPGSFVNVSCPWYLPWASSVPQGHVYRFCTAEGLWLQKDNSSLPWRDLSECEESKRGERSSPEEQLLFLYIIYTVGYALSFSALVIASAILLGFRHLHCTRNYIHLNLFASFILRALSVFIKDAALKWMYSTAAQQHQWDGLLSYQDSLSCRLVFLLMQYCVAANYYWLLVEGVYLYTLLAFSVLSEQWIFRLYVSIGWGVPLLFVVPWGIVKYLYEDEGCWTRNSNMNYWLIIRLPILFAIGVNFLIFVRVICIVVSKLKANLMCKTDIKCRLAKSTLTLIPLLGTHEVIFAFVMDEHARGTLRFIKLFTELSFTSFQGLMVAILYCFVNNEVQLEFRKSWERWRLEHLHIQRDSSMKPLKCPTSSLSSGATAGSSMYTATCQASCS

Compound	EC50 [nM]
Cc1cc(-n2nc3c(c2-n2ccn(-c4cccc(CS(C)(=O)=O)c4)c2=O)[C@H](C)N(C(=O)c2cc4cc(C5CCOCC5)ccc4n2[C@@]2(c4noc(=O)[nH]4)C[C@@H]2C)CC3)cc(C)c1F [Compound 102a, 3-((1S,2S)-1-(2-((S)-2-(4-fluoro-3,5-dimethylphenyl)-4-methyl-3-(3-(3-((methylsulfonyl)methyl)phenyl)-2-oxo-2,3-dihydro-1H-imidazol-1-yl)-4,5,6,7-tetrahydro-2H-pyrazolo[4,3-c]pyridine-5-carbonyl)-5-(tetrahydro-2H-pyran-4-yl)-1H-indol-1-yl)-2-methylcyclopropyl)-1,2,4-oxadiazol-5(4H)-one]	0.27
CCS(=O)(=O)Cc1ccc(-n2ccn(-c3c4c(nn3-c3cc(C)c(F)c(C)c3)CCN(C(=O)c3cc5cc(C6CCOCC6)ccc5n3[C@@]3(c5noc(=O)[nH]5)C[C@@H]3C)[C@H]4C)c2=O)cc1 [Compound 103a, 3-((1S,2S)-1-(2-((S)-3-(3-(4-((ethylsulfonyl)methyl)phenyl)-2-oxo-2,3-dihydro-1H-imidazol-1-yl)-2-(4-fluoro-3,5-dimethylphenyl)-4-methyl-4,5,6,7-tetrahydro-2H-pyrazolo[4,3-c]pyridine-5-carbonyl)-5-(tetrahydro-2H-pyran-4-yl)-1H-indol-1-yl)-2-methylcyclopropyl)-1,2,4-oxadiazol-5(4H)-one]	0.065
CNS(=O)(=O)c1ccc(-n2ccn(-c3c4c(nn3-c3cc(C)c(F)c(C)c3)CCN(C(=O)c3cc5cc(C6CCOCC6)ccc5n3[C@@]3(c5noc(=O)[nH]5)C[C@@H]3C)[C@H]4C)c2=O)cc1 [Compound 104a, 4-(3-((S)-2-(4-fluoro-3,5-dimethylphenyl)-4-methyl-5-(1-((1S,2S)-2-methyl-1-(5-oxo-4,5-dihydro-1,2,4-oxadiazol-3-yl)cyclopropyl)-5-(tetrahydro-2H-pyran-4-yl)-1H-indole-2-carbonyl)-4,5,6,7-tetrahydro-2H-pyrazolo[4,3-c]pyridin-3-yl)-2-oxo-2,3-dihydro-1H-imidazol-1-yl)-N-methylbenzenesulfonamide]	0.081
Cc1cc(-n2nc3c(c2-n2ccn(-c4ccc(NS(C)(=O)=O)cc4)c2=O)[C@H](C)N(C(=O)c2cc4cc(C5CCOCC5)ccc4n2[C@@]2(c4noc(=O)[nH]4)C[C@@H]2C)CC3)cc(C)c1F [Compound 105a, N-(4-(3-((S)-2-(4-fluoro-3,5-dimethylphenyl)-4-methyl-5-(1-((1S,2S)-2-methyl-1-(5-oxo-4,5-dihydro-1,2,4-oxadiazol-3-yl)cyclopropyl)-5-(tetrahydro-2H-pyran-4-yl)-1H-indole-2-carbonyl)-4,5,6,7-tetrahydro-2H-pyrazolo[4,3-c]pyridin-3-yl)-2-oxo-2,3-dihydro-1H-imidazol-1-yl)phenyl)methanesulfonamide]	0.036
Cc1cc(-n2nc3c(c2-n2ccn(-c4cccc(N5CCCS5(=O)=O)c4)c2=O)[C@H](C)N(C(=O)c2cc4cc(C5CCOCC5)ccc4n2[C@@]2(c4noc(=O)[nH]4)C[C@@H]2C)CC3)cc(C)c1F [Compound 106a, 3-((1S,2S)-1-(2-((S)-3-(3-(3-(1,1-dioxidoisothiazolidin-2-yl)phenyl)-2-oxo-2,3-dihydro-1H-imidazol-1-yl)-2-(4-fluoro-3,5-dimethylphenyl)-4-methyl-4,5,6,7-tetrahydro-2H-pyrazolo[4,3-c]pyridine-5-carbonyl)-5-(tetrahydro-2H-pyran-4-yl)-1H-indol-1-yl)-2-methylcyclopropyl)-1,2,4-oxadiazol-5(4H)-one]	0.7
Cc1cc(-n2nc3c(c2-n2ccn(-c4ccc(N5CCCS5(=O)=O)cc4)c2=O)[C@H](C)N(C(=O)c2cc4cc(C5CCOCC5)ccc4n2[C@@]2(c4noc(=O)[nH]4)C[C@@H]2C)CC3)cc(C)c1F [Compound 107a, 3-((1S,2S)-1-(2-((S)-3-(3-(4-(1,1-dioxidoisothiazolidin-2-yl)phenyl)-2-oxo-2,3-dihydro-1H-imidazol-1-yl)-2-(4-fluoro-3,5-dimethylphenyl)-4-methyl-4,5,6,7-tetrahydro-2H-pyrazolo[4,3-c]pyridine-5-carbonyl)-5-(tetrahydro-2H-pyran-4-yl)-1H-indol-1-yl)-2-methylcyclopropyl)-1,2,4-oxadiazol-5(4H)-one]	0.18
Cc1cc(-n2nc3c(c2-n2ccn(-c4ccc(S(=O)(=O)C5CC5)cc4)c2=O)[C@H](C)N(C(=O)c2cc4cc(C5CCOCC5)ccc4n2[C@@]2(c4noc(=O)[nH]4)C[C@@H]2C)CC3)cc(C)c1F [Compound 108a, 3-((1S,2S)-1-(2-((S)-3-(3-(4-(cyclopropylsulfonyl)phenyl)-2-oxo-2,3-dihydro-1H-imidazol-1-yl)-2-(4-fluoro-3,5-dimethylphenyl)-4-methyl-4,5,6,7-tetrahydro-2H-pyrazolo[4,3-c]pyridine-5-carbonyl)-5-(tetrahydro-2H-pyran-4-yl)-1H-indol-1-yl)-2-methylcyclopropyl)-1,2,4-oxadiazol-5(4H)-one]	0.043

The remaining lines, values ahead:

EC50 [nM]	Compound
0.24	Cc1cc(-n2nc3c(c2-n2ccn(-c4cccc(CCS(C)(=O)=O)c4)c2=O)[C@H](C)N(C(=O)c2cc4cc(C5CCOCC5)ccc4n2[C@@]2(c4noc(=O)[nH]4)C[C@@H]2C)CC3)cc(C)c1F [Compound 109a, 3-((1S,2S)-1-(2-((S)-2-(4-fluoro-3,5-dimethylphenyl)-4-methyl-3-(3-(3-(2-(methylsulfonyl)ethyl)phenyl)-2-oxo-2,3-dihydro-1H-imidazol-1-yl)-4,5,6,7-tetrahydro-2H-pyrazolo[4,3-c]pyridine-5-carbonyl)-5-(tetrahydro-2H-pyran-4-yl)-1H-indol-1-yl)-2-methylcyclopropyl)-1,2,4-oxadiazol-5(4H)-one]
0.05	Cc1cc(-n2nc3c(c2-n2ccn(-c4ccc(CCS(C)(=O)=O)cc4F)c2=O)[C@H](C)N(C(=O)c2cc4cc(C5CCOCC5)ccc4n2[C@@]2(c4noc(=O)[nH]4)C[C@@H]2C)CC3)cc(C)c1F [Compound 110a, 3-((1S,2S)-1-(2-((S)-2-(4-fluoro-3,5-dimethylphenyl)-3-(3-(2-fluoro-4-(2-(methylsulfonyl)ethyl)phenyl)-2-oxo-2,3-dihydro-1H-imidazol-1-yl)-4-methyl-4,5,6,7-tetrahydro-2H-pyrazolo[4,3-c]pyridine-5-carbonyl)-5-(tetrahydro-2H-pyran-4-yl)-1H-indol-1-yl)-2-methylcyclopropyl)-1,2,4-oxadiazol-5(4H)-one]
0.32	CCS(=O)(=O)C(C)c1ccc(-n2ccn(-c3c4c(nn3-c3cc(C)c(F)c(C)c3)CCN(C(=O)c3cc5cc(C6CCOCC6)ccc5n3[C@@]3(c5noc(=O)[nH]5)C[C@@H]3C)[C@H]4C)c2=O)c(F)c1 (stereo partly drawn) [Compound 111a, 3-((1S,2S)-1-(2-((4S)-3-(3-(4-(1-(ethylsulfonyl)ethyl)-2-fluorophenyl)-2-oxo-2,3-dihydro-1H-imidazol-1-yl)-2-(4-fluoro-3,5-dimethylphenyl)-4-methyl-4,5,6,7-tetrahydro-2H-pyrazolo[4,3-c]pyridine-5-carbonyl)-5-(tetrahydro-2H-pyran-4-yl)-1H-indol-1-yl)-2-methylcyclopropyl)-1,2,4-oxadiazol-5(4H)-one]
0.17	CCS(=O)(=O)Cc1ccc(-n2ccn(-c3c4c(nn3-c3cc(C)c(F)c(C)c3)CCN(C(=O)c3cc5cc(C6CCOCC6)ccc5n3C3(c5noc(=O)[nH]5)CC3)[C@H]4C)c2=O)cc1 [Compound 112a, (S)-3-(1-(2-(3-(3-(4-((ethylsulfonyl)methyl)phenyl)-2-oxo-2,3-dihydro-1H-imidazol-1-yl)-2-(4-fluoro-3,5-dimethylphenyl)-4-methyl-4,5,6,7-tetrahydro-2H-pyrazolo[4,3-c]pyridine-5-carbonyl)-5-(tetrahydro-2H-pyran-4-yl)-1H-indol-1-yl)cyclopropyl)-1,2,4-oxadiazol-5(4H)-one]

Same assay, conditions: HEK293/CRE-Luc cell line (HDB) stably expressing GLP-1 Receptor; 30 min incubation at 37° C.; read-out: GLP1R cAMP Stimulation DR: pEC50 (M) [Species: Human, Assay Cell Line: HDB] (converted)

EC50 [nM]	Compound
0.0316	Cc1cc(-n2nc3c(c2-n2ccn(-c4ccc(CS(C)(=O)=O)cc4)c2=O)[C@H](C)N(C(=O)c2cc4cc(C5CCOCC5)ccc4n2[C@@]2(c4noc(=O)[nH]4)C[C@@H]2C)CC3)cc(C)c1F [Compound 101a, 3-((1S,2S)-1-(2-((S)-2-(4-fluoro-3,5-dimethylphenyl)-4-methyl-3-(3-(4-((methylsulfonyl)methyl)phenyl)-2-oxo-2,3-dihydro-1H-imidazol-1-yl)-4,5,6,7-tetrahydro-2H-pyrazolo[4,3-c]pyridine-5-carbonyl)-5-(tetrahydro-2H-pyran-4-yl)-1H-indol-1-yl)-2-methylcyclopropyl)-1,2,4-oxadiazol-5(4H)-one]
0.17	Cc1cc(-n2nc3c(c2-n2ccn(-c4ccc(N5CCCS5(=O)=O)cc4)c2=O)[C@H](C)N(C(=O)c2cc4cc(C5CCOCC5)ccc4n2[C@@]2(c4noc(=O)[nH]4)C[C@@H]2C)CC3)cc(C)c1F [Compound 107a, 3-((1S,2S)-1-(2-((S)-3-(3-(4-(1,1-dioxidoisothiazolidin-2-yl)phenyl)-2-oxo-2,3-dihydro-1H-imidazol-1-yl)-2-(4-fluoro-3,5-dimethylphenyl)-4-methyl-4,5,6,7-tetrahydro-2H-pyrazolo[4,3-c]pyridine-5-carbonyl)-5-(tetrahydro-2H-pyran-4-yl)-1H-indol-1-yl)-2-methylcyclopropyl)-1,2,4-oxadiazol-5(4H)-one]
